# ChEMBL document CHEMBL4651402, “Screening of ~5500 FDA-approved drugs and clinical candidates for anti-SARS-CoV-2 activity” (2021)
# Test system: SARS-CoV-2
# Test: microbe, parasite or virus in culture
# Settings: Severe acute respiratory syndrome coronavirus 2, Vero C1008, 48 h
SMILES,IC50 [µM],IC50 (read-out: pIC50 (converted)) [µM]
COC(=O)C[C@](O)(CCCC(C)(C)O)C(=O)O[C@@H]1C(OC)=C[C@]23CCCN2CCc2cc4c(cc2[C@H]13)OCO4 [OMACETAXINE MEPESUCCINATE],> 20,> 20
C[C@@H]1O[C@@H](O[C@@H]2C=C3CCC4C(CC[C@]5(C)[C@@H](c6ccc(=O)oc6)CC[C@]45O)[C@@]3(C)CC2)[C@H](O)[C@H](O)[C@H]1O (stereo partly drawn),> 20,> 20
CNC(=C[N+](=O)[O-])NCCSCc1csc(CN(C)C)n1 [NIZATIDINE],> 20,> 20
COc1ccc(-c2ccc(Cn3c(CC(C)(C)C(=O)O)c(SC(C)(C)C)c4cc(OCc5ccccn5)ccc43)cc2)cn1,> 20,> 20
CNCC(O)c1ccc(OC(=O)C(C)(C)C)c(OC(=O)C(C)(C)C)c1 (stereo not drawn) [DIPIVEFRIN],> 20,> 20
NC(Cc1ccc(O)cc1)C(=O)O (stereo not drawn),> 20,> 20
NCc1ccccc1CC(=O)N[C@@H]1C(=O)N2C(C(=O)O)=C(CSc3nnnn3CC(=O)O)CS[C@H]12 [CEFORANIDE],> 20,> 20
CC(C)(C)c1ccc(Oc2ccc(N)cn2)cc1 [LIMANTRAFIN],> 20,> 20
C=C[C@@](C)(O)CC[C@H]1C(=C)CCC2[C@@](C)(CO)CCC[C@@]21C (stereo partly drawn),> 20,> 20
NC(=O)c1ccn2c1CS[C@@H]2c1cccnc1 [DACOPAFANT],> 20,> 20
Cn1c(=O)cc(N2CCC[C@@H](N)C2)n(Cc2ccccc2C#N)c1=O [ALOGLIPTIN],> 20,> 20
CCCCOc1nc(N)c2c(n1)N(Cc1cccc(CN3CCCC3)c1)CC(=O)N2 [VESATOLIMOD],> 20,> 20
CCOC(=O)C1(c2ccccc2)CCN(C)CC1 [MEPERIDINE],> 20,> 20
Nc1nc(=O)n([C@H]2C[C@H](O)[C@@H](CO)O2)cc1F,> 20,> 20
NS(=O)(=O)c1ccc(N2CCCCS2(=O)=O)cc1,> 20,> 20
C#C[C@]1(O)CC[C@H]2[C@@H]3CCC4=CC(=O)CCC4=C3C=C[C@@]21CC [GESTRINONE],> 20,> 20
O=C(OCCOCCO)c1ccccc1Nc1cccc(C(F)(F)F)c1 [ETOFENAMATE],> 20,> 20
COC[C@@H](c1ccc(C(F)(F)F)cc1)N1CCN(C2(C)CCN(C(=O)c3c(C)ncnc3C)CC2)C[C@@H]1C [VICRIVIROC],> 20,> 20
CC1=CC(=O)C2=C(C)CCC3[C@H](C)C(=O)O[C@@H]3[C@@H]12 (stereo partly drawn),> 20,> 20
CC1=C(C(=O)Nc2ccccc2)SCCO1 [CARBOXIN],> 20,> 20
C[C@@](Cc1ccc(O)c(O)c1)(NN)C(=O)O [CARBIDOPA ANHYDROUS],> 20,> 20
Oc1cccc(O)c1 [RESORCINOL],> 20,> 20
CCCNC(C)C(=O)Nc1c(C)csc1C(=O)OC (stereo not drawn) [ARTICAINE],> 20,> 20
CN1C(=O)CC(c2ccccc2)C1=O (stereo not drawn) [PHENSUXIMIDE],> 20,> 20
N[C@@H](Cc1cc(I)c(Oc2cc(I)c(O)c(I)c2)c(I)c1)C(=O)O [LEVOTHYROXINE],> 20,> 20
C/N=C(\NS(=O)(=O)c1ccc(Cl)cc1)N1C[C@@H](c2ccccc2)C(c2ccc(Cl)cc2)=N1 (racemic),> 20,> 20
CC12CCC3C(CCC4CC(=O)CCC43C)C1CCC2=O (stereo not drawn),> 20,> 20

SMILES,IC50 [µM],IC50 (read-out: pIC50 (converted)) [µM]
CC(C(=O)O)c1ccc2c(c1)Cc1ccccc1-2 (stereo not drawn) [CICLOPROFEN],> 20,> 20
C=CCc1cc(OC)c2c(c1OC)OCO2 [APIOL],> 20,> 20
CC(=O)[C@@]1(O)CC[C@H]2[C@@H]3CCC4=CC(=O)C=C[C@]4(C)[C@H]3[C@@H](O)C[C@@]21C [DEPRODONE],> 20,> 20
Cc1cccc(N(C)C(=S)Oc2ccc3ccccc3c2)c1 [TOLNAFTATE],> 20,> 20
O=S(=O)(O)c1ccc2[nH]c(-c3ccccc3)nc2c1 [ENSULIZOLE],> 20,> 20
Cc1cccc(N2CCN(CCCOc3ccc4ccc(O)nc4c3)CC2)c1C,> 20,> 20
N#Cc1c[nH]cc1-c1cccc2c1OC(F)(F)O2 [FLUDIOXONIL],> 20,> 20
CN(CC1(C)CCCO1)S(=O)(=O)c1ccc(Cl)c(S(N)(=O)=O)c1 (stereo not drawn) [MEFRUSIDE],> 20,> 20
CCN(CC)C(C)C(=O)c1ccccc1 (stereo not drawn) [DIETHYLPROPION],> 20,> 20
COc1ccc(N2CCN(c3cccc(C)c3)CC2)nn1,> 20,> 20
Nc1ncnc(Nc2ccccc2)n1 [AMANOZINE],> 20,> 20
COc1cc(N)c(Cl)cc1C(=O)N[C@H]1CCNC[C@H]1OC,> 20,> 20
NS(=O)(=O)c1cc2c(cc1C(F)(F)F)NCNS2(=O)=O [HYDROFLUMETHIAZIDE],> 20,> 20
CCC(C)C(CC)C(N)=O (stereo not drawn) [VALNOCTAMIDE],> 20,> 20
O=C(O)CCC(=O)c1ccc(-c2ccccc2)cc1 [FENBUFEN],> 20,> 20
CNCC[C@@H](Oc1ccccc1C)c1ccccc1 [ATOMOXETINE],> 20,> 20
C[C@H]1[C@H]2C(=O)c3ccc(O)cc3[C@]1(C)CCN2CC1CC1 [KETAZOCINE],> 20,> 20
CC12CCC3C(CCC4CC(N)C(O)CC43C)C1CCC2=O (stereo not drawn),> 20,> 20
NC(=O)NO [HYDROXYUREA],> 20,> 20
COc1ccc(C(=O)c2ccccc2)c(O)c1 [OXYBENZONE],> 20,> 20
CN1CCN(C2=Nc3cc(F)ccc3Cc3ccccc32)CC1 [FLUPERLAPINE],> 20,> 20
Cc1ccc2c(Cl)cc(Cl)c(O)c2n1 [CHLORQUINALDOL],> 20,> 20
CC12CCC(=O)C=C1CCC1C2C(=O)CC2(C)C1CCC2(O)C(=O)CO (stereo not drawn),> 20,> 20
NCCc1ccc(O)cc1 [TYRAMINE],> 20,> 20
CC[C@@]1(O)C(=O)OCc2c1cc1n(c2=O)Cc2c-1nc1ccccc1c2CCNC(C)C [BELOTECAN],> 20,> 20
c1ccc(CN(CC2=NCCN2)c2ccccc2)cc1 [ANTAZOLINE],> 20,> 20
Cn1c(N2CCCCS2(=O)=O)nc(C(=O)NCc2ccc(F)cc2)c(O)c1=O [BMS-707035],> 20,> 20

SMILES,IC50 [µM],IC50 (read-out: pIC50 (converted)) [µM]
O=C1CC2(CCCC2)CC(=O)N1CCCCN1CCN(c2ncccn2)CC1 [BUSPIRONE],> 20,> 20
NC[C@@H]1O[C@H](O[C@H]2[C@@H](O)[C@H](O[C@@H]3[C@@H](O)[C@H](N)C[C@H](N)[C@H]3O[C@H]3O[C@H](CO)[C@@H](O)[C@H](O)[C@H]3N)O[C@@H]2CO)[C@H](N)[C@@H](O)[C@@H]1O [PAROMOMYCIN],> 20,> 20
O=C(O)C(=O)O [OXALIC ACID],> 20,> 20
CC(=O)Oc1ccc2c(c1)CCC1C2CCC2(C)C(O)CCC12 (stereo not drawn),> 20,> 20
Nc1ccncc1N [AMIFAMPRIDINE],> 20,> 20
COc1ccc2c(c1)Sc1ccc(C(C)C(=O)O)cc1N2C (stereo not drawn) [PROTIZINIC ACID],> 20,> 20
O=C(O)CC(S)C(=O)O (stereo not drawn),> 20,> 20
Cc1ccc(C(C)C)c(O)c1 [THYMOL],> 20,> 20
Cc1cc(Nc2ccc(S(F)(F)(F)(F)F)cc2)n2nc(C(C)(F)F)nc2n1 [DSM-265],> 20,> 20
Fc1ccc(CN2CCC(Nc3ccc(C(F)(F)F)nn3)CC2)cc1F [JNJ-37822681],> 20,> 20
CCOC(=O)c1[nH]c2cc(OC)c(OC)cc2c1CCN1CCN(c2ccccc2)CC1 [ALPERTINE],> 20,> 20
CC1(C)C(=O)Nc2ccc(C3=NNC(=O)CC3)cc21 [INDOLIDAN],> 20,> 20
COc1cc2c(Oc3ccc(NC(=O)C4(C(=O)Nc5ccc(F)cc5)CC4)cc3F)ccnc2cc1OCCCN1CCOCC1 [FORETINIB],> 20,> 20
C1COC(NC(C2CC2)C2CC2)=N1 [RILMENIDINE],> 20,> 20
COc1cc2nc(N3CCN(C(=O)C4CCCO4)CC3)nc(N)c2cc1OC (stereo not drawn) [TERAZOSIN],> 20,> 20
O=C(O)[C@H]1CCCNC1 [(S)-NIPECOTIC ACID],> 20,> 20
CN[C@@H](C)[C@H](O)c1ccc(O)cc1,> 20,> 20
CC1=C(C(=O)O)N2C(=O)C(NC(=O)C(N)c3ccc(O)cc3)C2SC1 (stereo not drawn),> 20,> 20
CC1C(=O)OC2CCN3CC=C(COC(=O)C(C)(O)C1(C)O)C23 (stereo not drawn),> 20,> 20
CCOc1cc2ncc(C#N)c(Nc3ccc(F)c(Cl)c3)c2cc1NC(=O)/C=C/CN(C)C [PELITINIB],> 20,> 20
NC(=O)c1ccc[n+]([C@@H]2O[C@H](CO)[C@@H](O)[C@H]2O)c1 [NICOTINAMIDE RIBOSIDE],> 20,> 20
NNCc1ccccc1 [BENZYLHYDRAZINE],> 20,> 20
C=C1CC[C@@]2(O)[C@H]3Cc4ccc(O)c5c4[C@@]2(CCN3CC2CC2)[C@H]1O5,> 20,> 20
CC(=O)N[C@H](Cc1c[nH]c2ccccc12)C(=O)O,> 20,> 20
Cc1ccc(-c2cc(C(F)(F)F)nn2-c2ccc(S(N)(=O)=O)cc2)cc1 [CELECOXIB],> 20,> 20
